What all share (format): biochemical
Assay [1] has as its target Human recombinant cathepsin S (Homo sapiens (Human), UniProt P25774). As to the kind of experiment: In vitro cathepsin Ki inhibition measurements, cathepsin S. The note with it: for selectivity against other mammalian cathepsins (in words): cathepsin S over other mammalian cathepsins; for Ki: read-out: In vitro Ki (nM) vs Cath S; for improvement in in vitro potency against human cathepsin S: relative to Compound 7. The method, then: (§1) Stock solutions of substrate or inhibitor were made up to 10 mM in 100% dimethylsulfoxide (DMSO) (Rathburns, Glasgow, U.K.) and diluted as appropriately required. In all cases the DMSO concentration in the assays was maintained at less than 1% (vol./vol.). The equilibrium inhibition constants (Ki^ss) for each compound were measured under steady-state conditions monitoring enzyme activity as a function of inhibitor concentration. The values were calculated on the assumption of pure competitive behaviour (Cornish-Bowden, A. Fundamentals of enzyme kinetics Portland Press; 1995, 93-128.).
(§2) The apparent inhibition constant (Ki) for each compound was determined on the basis that inhibition was reversible and occurred by a pure-competitive mechanism. The Ki values were calculated, from the dependence of enzyme activity as a function of inhibitor concentration, by direct regression analysis (Prism v 3.02) using Equation 2 (Cornish-Bowden, A., 1995.).
(§3) In situations where the apparent dissociation constant (Ki^app) approached the enzyme concentrations, the Ki^app values were calculated using a quadratic solution in the form described by Equation 3 (Morrison, J. F. Trends Biochem. Sci., 7, 102-105, 1982; Morrison, J. F. Biochim. Biophys. Acta. 185, 269-286, 1969: Stone, S. R. and Hofsteenge, J. Biochemistry, 25, 4622-4628, 1986).
(§4) Curves were fitted by non-linear regression analysis (Prism) using a fixed value for the enzyme concentration. Equation 4 was used to account for the substrate kinetics, where ‘Ki’ is the inhibition constant, ‘[So]’ is the initial substrate concentration and ‘KM^app’ is the apparent macroscopic binding (Michaelis) constant for the substrate (Morrison, 1982).

The next assay concerns the target Human liver cathepsin L (Homo sapiens (Human), UniProt P07711). As to the kind of experiment: In vitro cathepsin Ki inhibition measurements, cathepsin L. The note with it: read-out: In vitro Ki (nM) vs Cath L. The method, then: as §1
Human liver cathepsin L (0.25 nM final, Athens Research and Technology, GA, USA) was routinely assayed in 10 mM bis-tris propane; pH 6.5 containing 1 mM EDTA, 5 mM 2-mercaptoethanol, 1 mM CaCl2 and 4 μM Ac-Phe-Arg-AMC ([S]=KM) (Bachem).
as §2, §3, §4

For assay [2], the target named is Human recombinant cathepsin K (Homo sapiens (Human), UniProt P43235). As to the kind of experiment: In vitro cathepsin Ki inhibition measurements, cathepsin K. The note with it: read-out: In vitro Ki (nM) vs Cath K. The method, then:
as §1
Human recombinant cathepsin K (0.25 nM final; B. Turk, Josef, Stefan Institute, Ljubljana, Slovenia), was routinely assayed in 100 mM sodium acetate; pH 5.5 containing 1 mM EDTA, 10 mM L-cysteine and 1.8 μM Z-Leu-Arg-AMC ([S]=KM).
as §2, §3, §4

In the next assay the target is Human liver cathepsin B (Homo sapiens (Human), UniProt P07858). As to the kind of experiment: In vitro cathepsin Ki inhibition measurements, cathepsin B. The note with it: read-out: In vitro Ki (nM) vs Cath B. The method, then: as §1
Human liver cathepsin B (0.25 nM final; Merck Biosciences), was routinely assayed in 10 mM bis-tris propane; pH 6.5 containing 1 mM EDTA, 5 mM 2-mercaptoethanol, 1 mM CaCl2 and 60 μM Z-Phe-Arg-AMC ([S]=KM) (Bachem, Weil am Rhein, Germany).
as §2, §3
as §4, with “In Equation 3 ‘vi’ is the observed residual activity, ‘F’ is the difference between the maximum activity (i.e. in the absence of inhibitor) and minimum enzyme activity, ‘Eo’ is the total enzyme concentration, ‘Ki^app’ is the apparent dissociation constant and ‘Io’ is the inhibitor concentration. Curves” for “Curves”

In assay [3] the target is Human recombinant cathepsin V (Homo sapiens (Human), UniProt O60911). As to the kind of experiment: In vitro cathepsin Ki inhibition measurements, cathepsin V. The note with it: read-out: In vitro Ki (nM) vs Cath V. The method, then: as §1
Human recombinant cathepsin V (0.25 nM final, Merck Biosciences) was routinely assayed in 100 mM sodium acetate; pH 5.5 containing 10 mM L-cysteine, 0.001% (vol./vol.) zwittergent 3-12 (Merck Biosciences) and 5 μM Z-Leu-Arg-AMC (KM=0.5 μM) (Amura).
as §2, §3, §4

Bounds are passed on as bounds.

The record followed here is patent US8552202B2, “Furo[3, 2-B] pyrrol-3-ones as cathespin S inhibitors” (Amura Therapeutics Limited, priority 2008, dated 2013).

Human recombinant cathepsin S, sequence (P25774 115-331): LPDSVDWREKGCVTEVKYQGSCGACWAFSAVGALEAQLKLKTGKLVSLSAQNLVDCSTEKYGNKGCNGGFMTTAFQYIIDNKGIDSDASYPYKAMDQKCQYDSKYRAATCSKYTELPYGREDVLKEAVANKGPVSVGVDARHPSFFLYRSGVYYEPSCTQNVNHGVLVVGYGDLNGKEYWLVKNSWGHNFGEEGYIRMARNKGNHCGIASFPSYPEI
Human recombinant cathepsin V, sequence (O60911 114-334): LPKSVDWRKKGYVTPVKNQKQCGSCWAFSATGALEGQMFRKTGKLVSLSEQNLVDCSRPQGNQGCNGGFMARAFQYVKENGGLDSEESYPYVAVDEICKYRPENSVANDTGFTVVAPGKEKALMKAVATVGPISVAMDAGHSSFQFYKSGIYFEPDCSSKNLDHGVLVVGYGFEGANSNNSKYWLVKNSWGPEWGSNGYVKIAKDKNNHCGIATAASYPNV
Human recombinant cathepsin K, sequence (P43235 115-329): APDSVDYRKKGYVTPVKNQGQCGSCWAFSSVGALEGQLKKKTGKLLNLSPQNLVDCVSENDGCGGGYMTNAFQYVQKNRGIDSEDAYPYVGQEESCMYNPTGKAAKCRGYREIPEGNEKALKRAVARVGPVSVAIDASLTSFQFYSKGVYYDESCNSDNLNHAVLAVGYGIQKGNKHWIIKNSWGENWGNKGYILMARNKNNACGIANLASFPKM
Human liver cathepsin L, sequence (P07711 114-333): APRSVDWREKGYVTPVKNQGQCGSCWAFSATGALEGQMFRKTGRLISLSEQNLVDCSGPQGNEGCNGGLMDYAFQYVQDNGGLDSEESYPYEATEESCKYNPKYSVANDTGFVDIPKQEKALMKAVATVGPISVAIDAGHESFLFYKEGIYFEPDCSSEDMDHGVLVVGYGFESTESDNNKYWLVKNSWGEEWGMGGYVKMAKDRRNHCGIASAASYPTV

In the case of `C[C@H]1CC[C@H]([C@H](NC(=O)c2cccc(-n3cnnn3)c2)C(=O)N2C[C@H](Cl)[C@H]3OCC(=O)[C@H]32)CC1` [EXAMPLE 2, N—((S)-2-((3aS,6S,6aS)-6-chloro-3-oxodihydro-2H-furo[3,2-b]pyrrol-4(5H,6H,6aH)-yl)-1-((1r,4S)-4-methylcyclohexyl)-2-oxoethyl)-3-(1H-tetrazol-1-yl)benzamide], the “selectivity against other mammalian cathepsins (in words)” value in assay [1] is listed as “high selectivity”. In addition, the Ki in assay [1] was 2.2 nM; at Human liver cathepsin L it was greater than 10000 nM; in assay [2] it was greater than 8000 nM; at Human liver cathepsin B it was greater than 10000 nM; in assay [3], greater than 10000 nM. For the same compound, the “improvement in in vitro potency against human cathepsin S” value in assay [1] is reported as 77 fold.

Consider `CC1(C)CCC([C@H](NC(=O)c2cccc(-n3cnnn3)c2)C(=O)N2C[C@H](Cl)[C@H]3OCC(=O)[C@H]32)CC1` [EXAMPLE 3, N—((S)-2-((3aS,6S,6aS)-6-chloro-3-oxodihydro-2H-furo[3,2-b]pyrrol-4(5H,6H,6aH)-yl)-1-(4,4-dimethylcyclohexyl)-2-oxoethyl)-3-(1H-tetrazol-1-yl)benzamide], for which, in assay [1], the “selectivity against other mammalian cathepsins (in words)” value is on record as “high selectivity”. The Ki in assay [1] is 12 nM; on Human liver cathepsin L, greater than 10000 nM; in assay [2] it was greater than 10000 nM; at Human liver cathepsin B, greater than 10000 nM; in assay [3], 1700 nM. Moreover, the “improvement in in vitro potency against human cathepsin S” value in assay [1] turned out to be 15 fold.

A word on the Ki: it is a measure of affinity in units of concentration, obtained from inhibition or displacement.
